# Assay results as given in a melting point compilation (Tetko et al.; mined from patent text by program, amines drawn as free bases though some values may be those of a salt).
row,melting point [°C],Structure (SMILES)
1,236,CCOC(=O)C1=C(N)NC2=C(C(=O)CCC2)C1C (stereo not given)
2,214 to 215,COc1nc2cc([N+](=O)[O-])c(C)c(C(=O)Nc3ccc(C)cc3)c2nc1OC
3,150 to 152,CS(=O)(=O)c1ccc(-c2cccn2-c2ccc(OC(F)(F)F)cc2)cc1
4,234 to 235,CCOC(=O)c1[nH]c2cc(Cl)cc(Cl)c2c1NCC(=O)c1cccc(F)c1
5,234,O=C(Cc1ccc(OCc2ccccc2)cc1)NC1(C(=O)O)Cc2ccc(-c3ccc(Cl)cc3)cc2C1 (stereo not given)
6,> 260,O=C1CNC(c2ccc(Cl)cc2)=NN1
7,83 to 85,CO/C=C(/C(=O)OC)c1ccccc1Oc1cccc(N)c1
8,172,CCCCc1c(C(=O)c2ccc(O)cc2)n(C)c2ccc([N+](=O)[O-])cc12
9,285 to 286,CN(C)CC1CCn2c(c(C3=C(c4csc5ccccc45)C(=O)NC3=O)c3ccccc32)C1 (stereo not given)
10,255,NS(=O)(=O)c1ccc(-n2nc(C(F)F)cc2-c2nc3ccc(F)cc3s2)cc1
11,149,COC(=O)C1(NC(=O)Cc2cc(-c3ccc(Cl)cc3)ccc2C)CCCC(C(F)(F)F)C1 (stereo not given)
12,139 to 141,CCC(=O)N[C@@H]1CN(C(=O)c2nn(C)c3ccccc23)C[C@@H]1C (relative stereo)
13,101,CCOCc1nc2c(N)nc3ccccc3c2n1CCCCS(=O)(=O)NCc1ccc(OC)cc1
14,146,COc1c(C)cc(-c2cncc(OC3SCC(OC(C)=O)C(OC(C)=O)C3OC(C)=O)c2)cc1C (stereo not given)
15,108 to 110,Nc1ncccc1OCc1c(F)ccc(F)c1F
16,198 to 199,COc1cc(OC)cc(C(=O)NC(NC(=NC#N)Nc2cccnc2OC)C(C)(Cl)Cl)c1 (stereo not given)
17,150 to 160,COc1ccc(NC(=O)c2ccc(F)c(F)c2)cc1NS(=O)(=O)c1cccc([N+](=O)[O-])c1
18,172 to 175,CN(C)CCCn1cc(C(=O)NCc2ccc(Cl)cc2)c(=O)c2cc(C#CCO)ccc21
19,180 to 181,Cc1ccc(S(=O)(=O)NC(Cc2ccccc2)C(=O)Nc2c(F)cc(F)cc2F)cc1 (stereo not given)
20,120 to 122,CC1=C(C(=O)O)C(c2ccccc2[N+](=O)[O-])C(C(=O)O)=C(C)N1

row,melting point [°C],Structure (SMILES)
1,120 to 122,Cc1ccc(COc2ncc(F)c(NS(=O)(=O)c3ccc(C)cc3)n2)cc1
2,94 to 96,Fc1cc2c(cc1Cl)C(Cl)Cc1ccccc1S2 (stereo not given)
3,187 to 189,CCOC(=O)C=C1CSC(NC(=O)c2ccccc2)=NN1C(=O)c1ccccc1
4,124 to 126,C=C(c1ccc(OC)cc1)c1ccc(N(C)C)cc1
5,106,Cc1cc(-n2cncn2)c2cccc(OCc3c(Cl)ccc(S(=O)(=O)N4CCC[C@H]4C(=O)NCCN(C)C)c3Cl)c2n1
6,134 to 138,O=C(c1nn(-c2ccc(F)cc2F)c2c1C1CCC2C1)N1CCc2ccccc2C1 (stereo not given)
7,119 to 125,O=C(NCC1CCCC1)c1ccc2c(Br)n[nH]c2c1
8,144 to 145,Cc1nc(N2CCCC(Cc3cc(F)ccc3F)C2=O)sc1C(=O)NCc1ccccc1 (stereo not given)
9,122,Cc1ccc(S(=O)(=O)NC(=O)C2C(=O)CC(C)CC2=O)cc1 (stereo not given)
10,188 to 189,COc1ccc(C(=O)Nc2ccccc2)cc1NC(=S)Nc1cccc([N+](=O)[O-])c1
11,212 to 215,Cc1ccc(S(=O)(=O)Nc2ccc(C(N)=O)cc2C(N)=O)cc1
12,43 to 45,CCOC(=O)c1conc1-c1ccc(Cl)cc1
13,117 to 118,CCC(=O)Oc1cc(OC)cc(OC)c1C(=O)C=Cc1ccc(OC)cc1
14,160 to 162,CC1CCCN(c2nc(S(C)(=O)=O)nc(Cl)c2-c2c(F)cc(F)cc2F)O1 (stereo not given)
15,74.5 to 76,COc1ccc(S(=O)(=O)N(Cc2cccnc2)[C@@H](C(=O)NOCc2ccccc2)C(C)C)cc1
16,181 to 184,Cc1ccc(C)c(Sc2ccc(C#N)cc2S(=O)(=O)N2CCOCC2)c1
17,115,COc1cc(N)c(Cl)cc1C(=O)N[C@H]1CCN(CCCCNc2ncccn2)C[C@H]1OC (relative stereo)
18,77 to 78,COCCNC(=O)c1cccc(-c2cccc3oc(Cc4ccc(F)c(Cl)c4)cc23)c1
19,232 to 237,Cc1cc2cc(CN3CCCC3)cnc2cc1NC(=O)c1ccc(-c2ccc(Cl)cc2)nc1
20,156,CC(C)c1ccc(NC(=O)C2CCCc3ccccc32)cn1 (stereo not given)

row,melting point [°C],Structure (SMILES)
1,162 to 168,CC(C)NC(=O)c1cnc(N2CCC(n3c(=O)oc4ccccc43)CC2)c(Cl)c1
2,200 to 202,O=C(Nc1ccc(S(=O)(=O)c2ccccn2)cc1)C(O)(C(F)F)C(F)F
3,261 to 263,CN(Cc1ccc(NC(=O)C2=Cc3cc(-c4ccc(OC(F)(F)F)cc4)ccc3S(=O)(=O)CC2)cc1)C1CCOCC1
4,218 to 220,O=c1cc(C(F)(F)F)c2ccc(N3CCOCC3)nc2o1
5,83,CCN(CC)C(=O)Oc1cc(-c2cccc(Cl)c2)nc2ccccc12
6,112 to 115,COC(=O)c1cc(Cl)c(Oc2ccc(OC)c(C(=O)c3ccc(F)cc3)c2)c(Cl)c1
7,87 to 88,O=C(O)CCC(O)c1ccc(-c2ccccc2)c(Cl)c1 (stereo not given)
8,232 to 234,COc1ccc2c(c1)CCn1c-2ncc(C(=O)O)c1=O
9,160,COc1ccc(S(=O)(=O)N2C(=O)C(c3ccccc3OC)(N3Cc4ccccc4C[C@H]3C(=O)N(C)C)c3cc(Cl)c(C)cc32)c(OC)c1 (stereo not given in full)
10,154 to 156,COc1ccc(C(=O)[C@H]2CC=CC[C@H]2C(=O)O)c2c1OC(C)(C)C2 (relative stereo)
11,88 to 90,CC(C(=O)O)c1cc([N+](=O)[O-])ccc1F (stereo not given)
12,145 to 148,CCC1(CCCCN2CCN(c3ccccc3Cl)CC2)C(=O)Nc2ccccc21 (stereo not given)
13,129 to 132,CCOC(=O)c1cnc2sc(SCc3ccccc3)nn2c1=O
14,99.5 to 100,O=[N+]([O-])c1cccc(-c2ccccc2O)c1
15,167 to 169,CC(=O)c1c(O)ccc2c(C)cc(=O)oc12
16,255 to 256,NS(=O)(=O)c1ccc(N2CCN(Cc3cn4cc(Cl)ccc4n3)CC2)cc1
17,111 to 113,COc1c(C)c(C)c(OC)c(CCCOc2ccc(CC3SC(=O)NC3=O)cc2)c1C (stereo not given)
18,100 to 102,Cc1ccc(CSC2=C(O)CC(C)(C)CC2=O)cc1
19,93 to 94,COC(=O)c1ccc(COc2cc(C(C)(C)C)nn2Cc2ccc(C(=O)OC)cc2)cc1
20,161 to 163,CCc1cc2c(s1)SCc1cc(=O)n(-c3ccc(Cl)cc3)nc1-2

# More lines, now with the values behind:
row,Structure (SMILES),melting point [°C]
1,CCOc1cc(C=[N+]([O-])C(C)(C)CC(C)(C)C)ccc1OC,77.5
2,CCCCCC(O)C=CC1C(O)CC(O)C1CCCCCCC(=O)O (stereo not given),98 to 100
3,CC(C)c1cccc(C(C)C)c1Oc1ccc(C#N)c(C#N)c1,114 to 116
4,CC(C)(N)c1cc(Cl)c(Cl)c(Cl)c1,56 to 59
5,CNc1nc(-c2ccccc2)ccc1[N+](=O)[O-],98 to 99
6,CCCCCCCOc1ccc(N=Nc2ccc([N+](=O)[O-])cc2)cc1,82.3 to 83.2
7,CNC(=O)c1cnn(-c2ccc(Br)cc2)c1C#N,240 to 241
8,CC(=O)NC(C(=O)NCc1ccccc1)c1ncc[nH]1 (stereo not given),228 to 230
9,CC=CCN1C(=O)c2ccccc2Oc2ncccc21,79 to 81
10,C#CCCCCCCCCCCCCCCCCCCCC(=O)OC(C)(C)C,44 to 45
11,C#CCOc1ccc(C(=O)C=Cc2c(OC)cc(OC)cc2OC)c(O)c1,177 to 179
12,CC(C)(C)OC(=O)c1cn(-c2cccnc2)cn1,81 to 82
13,N[C@@H](CCCCN=Cc1ccccc1)C(=O)O,79 to 81
14,O=C1OC(=O)c2cc(N3C(=O)CCC3=O)ccc21,228 to 230
15,O=C1C2CC3=C(CN2C(=O)N1c1ccccc1)N(Cc1ccccc1)CN3 (stereo not given),227 to 229
16,Cc1oc(-c2ccccc2)nc1C(=O)c1cc2cc(Br)ccc2o1,212 to 213
17,O=C1c2ccccc2C(=O)N1CCc1c[nH]c(=O)[nH]c1=O,324 to 327
18,O=c1[nH]cc(C=CBr)c(=O)[nH]1,> 320
19,CN1Cc2c(-c3cccs3)ncn2-c2cccc(Cl)c2C1=O,222 to 223
20,CN1C(=O)[C@H](NC(=O)CC2CCCCC2)N=C(c2ccccc2)c2ccccc21,144 to 146

row,Structure (SMILES),melting point [°C]
1,Cc1nc(-c2c(F)cccc2Cl)n[nH]1,232 to 233
2,CCSCCCNc1c(S(=O)(=O)C(F)(F)F)c(C#N)nn1-c1c(Cl)cc(C(F)(F)F)cc1Cl,80
3,OC1CCc2cc(F)cc(F)c21 (stereo not given),102 to 103
4,Cc1c(F)c(N2CCN(C)CC2)c(C)c2c1c(=O)c(C(=O)O)cn2C1CC1,205 to 206
5,O=c1[nH][nH]c(=O)c2c(O)c3c(Br)cccc3nc12,280 to 281
6,COCCCn1nnnc1-c1cc(-c2cccc(C(=O)OC)c2)c(OCc2ccccc2)cc1OCc1ccccc1,105 to 108
7,COCCOCCOCCC1(CCOCCOCCOC)c2cc(C#Cc3ccc(C=O)s3)ccc2-c2ccc(C#Cc3ccc(C=O)s3)cc21,84
8,C=CCNC(=O)n1nc(NC)n(C)c1=O,136 to 137
9,CCOP(=O)(CC(N)=S)OCC,73 to 75
10,Cn1ccnc1Sc1ccc(I)cc1Cl,99 to 101
11,CC(C)(C)OC(=O)N[C@H]1CC[C@H](CCN2CCN(c3nccc4c3OCC4)CC2)CC1,141
12,CC1(C)CC(=O)c2c(Nc3ccccc3)cn(-c3ccccn3)c2C1,135 to 138
13,COc1cccc(-n2cccn2)c1C#N,93 to 94
14,Nc1cccc(NCCO)c1[N+](=O)[O-],129
15,COC(=O)CCCCCCCNC(=O)C(CSC(C)=O)Cc1ccccc1 (stereo not given),44 to 45
16,CCNC(=O)ON(C(C)=O)C(=O)NCC,84 to 86
17,CCOC(=O)c1c(C(F)F)nn(C)c1Cl,37 to 39
18,[N-]=[N+]=C1CCCCCCCCCCC1=O,43 to 44
19,CCOC(=O)COc1ccc2c(c1[N+](=O)[O-])C(=O)CC2,137 to 139
20,COc1ccc(-c2c(N)oc3c(C(C)(C)C)cc(C(C)(C)C)cc23)cc1OC,172 to 174
